Measured values as given in US20090048210A1, “AGENT FOR THERAPY OR TREATMENT OF WOUND” (priority 2004, published 2009).

Key:
[1] = system: normal human neonatal prepuce epidermis keratinized cells (NHEK(F)); assay: Human epidermis keratinized cell proliferation assay (WST-8 cell counting); format: cell-based; conditions: for overall effect on cell proliferation ability as compared with the control: summary of the 24 and 48 hour experiments
Protocol: Human epidermis keratinized cells were cultured in the presence of chitin and chitosan as well as their derivatives, and change in proliferation ability of the cell was measured.
As the human epidermis cell, normal human neonatal prepuce epidermis keratinized cells (NHEK(F)) (Kurabo Biomedical, Osaka) were used.
A medium used for measuring NHEK(F) proliferation effect was obtained by adding 1 ml of a PSA solution (Kurabo Biomedical, Osaka) containing penicillin, streptomycin and amphoterin B, and 10% bovine fetus serum (Gibco, USA) to 500 ml of a basic medium for human epidermis keratinized cell HuMedia-KB2 (Kurabo Biomedical, Osaka).
Cells were cultured under 37° C., 5% CO2 and wet environments using a medium for proliferation and a flask for culturing (Lot No. 055522) (Nalge Nunc International, Denmark), and passed to quaternary culture and used in an experiment.
The medium was aspirated when proliferation of cells reach sub-confluent (60 to 80% of the flask bottom area), then, inside of the vessel was washed with HEPES, and 2 ml of trypsin was added to cause release of cells from the vessel bottom. The released cells were recovered by HEPES and added into the neutralization solution to terminate the reaction of trypsin, and then, precipitated by centrifugal separation (1100 rpm, 5 minutes), and the supernatant was discarded. The recovered cells were re-floated on a medium for proliferation, the live cell number was counted by a trypan blue discharge test, and then, transplanted into another flask for culturing so that the live cell concentration to the flask bottom area was […].
For measurement, cells were centrifugally separated, then, re-floated on a medium for measurement and adjusted at 30000 cells/ml to give a cell suspension which was then used.
Into each well of a 96-well multi-plate (Sumitomo Bakelite Co. Ltd., Tokyo), the cell suspension prepared in (1) was disseminated each in an amount of 100 μl at a concentration of 3000 cells/well. For stabilizing disseminated cells, previous culturing was carried out for 12 hours under 37° C., 5% CO2 and wet environments.
Next, into each well of the multi-plate, the chitin-based samples or chitosan-based samples controlled at respective concentrations were added each in an amount of 10 μl. The final concentrations of respective samples in this operation were 100, 10, 1 and 0.1 μg/ml, respectively. True culturing was carried out for 24 hours or 48 hours under 37° C., 5% CO2 and wet environments.
For counting the number of cells proliferated in the culturing, a reagent for measuring cell number (cell counting kit) WST-8 was added in an amount of 10 μl to each well of the multi-plate, and allowed to stand still under 37° C., 5% CO2 and wet environments for 1 to 4 hours to cause coloration. After coloration, the absorbance was measured using EASY READER EAR340AT (Medi-Con Corporation, Osaka). Numerical treatment and statistics of the measured data were carried out using a table calculation software (Microsoft Excel xp (R)).
The cell number and absorbance show a proportional correlation (FIG. 2, Table 2), and this graph gave a calibration curve:
A cell number in dissemination of 3000 was subtracted from the cell number obtained from this calibration curve to give a proliferated cell number (cells/well).

skin deficient wound = assay: Skin deficient wound mouse model, skin regeneration; format: in vivo
Protocol: Fresh skin deficient wound was made using mice and a skin regeneration promoting effect of GlcNAc was studied. As a control, chitin in the form of gel (Chitosan Kowa K.K.) and physiological saline were used. (i) Eight 8-weeks female mice: BALB/c having a body weight of 20 to 25 g were used. In the experiment, one week-conditioning period was set. (ii) An N-acetyl-D-glucosamine (GlcNAc) powder (Seikagaku Kogyo K.K., Tokyo) was diluted in physiological saline so that its concentration was 10 mg/ml, and then, sterilized by filtration through a 0.22 μm millipore filter to give stock solution the stock solution was then diluted with sterile physiological saline to 10 μg/ml and used. (iii) chitin in the form of gel (Chitosan Kowa, Tokyo). Hereinafter, referred to as “chitin gel”. (iv) GlcNAc was blended in chitin gel so that its concentration was 10 μg/g and the blend was used. Hereinafter, the blend is referred to as “chitin gel+GlcNAc”. (i) Production of skin deficient model: Pentobarbital (trade name: Nembutal injection) was diluted 10-fold with physiological saline, and then, administered intraperitoneally to a mouse at 0.005 ml/g. After a sufficient anesthetic effect was confirmed, hair at the back of the mouse was shaved by a hair clipper, and the skin was disinfected with alcohol, and then, a round skin deficient region having a diameter of 5 mm was made using a 5 mm derma punch (FIG. 9). These eight mice were classified into “chitin gel group”, “chitin gel+GlcNAc group”, “GlcNAc group” and “physiological saline group” each containing two mice, and each group was applied once a day. (ii) “chitin gel group” and “chitin gel+GlcNAc group” were directly applied to the skin deficient region for 7 days each at 0.1 g/head, and “GlcNAc group” and “physiological saline group” were each at 1 ml/head. (iii) On 8th and later days, the crust formed was removed directly before application of each group, and application was carried out for further 8 days in the same manner as described above. The size of the skin damage repair region was measured on 8th and 16th days using calipers. Staining method: The skin deficiency repair region was collected, and fixed with a 10% neutral buffer formalin aqueous solution (formaldehyde solution). The repair region was excised to give a longitudinal section, and then, embedded in paraffin according to an ordinary method and sliced into 5 μm by a microtome. It was stained by hematoxylin-eosin staining.

[2] = 24 hours after addition, 0.1 μg/ml
[3] = 24 hours after addition, 1 μg/ml
[4] = 24 hours after addition, 10 μg/ml
[5] = 24 hours after addition, 100 μg/ml
[6] = 48 hours after addition, 0.1 μg/ml
[7] = 48 hours after addition, 1 μg/ml
[8] = 48 hours after addition, 10 μg/ml
[9] = 48 hours after addition, 100 μg/ml
[10] = 5 mm skin deficient region, applied once a day for 16 days
[11] = hematoxylin-eosin staining of the repair region

Compound: N[C@H]1C(O)O[C@H](CO)[C@@H](O)[C@@H]1O (stereo partly drawn) [GlcN, D-Glucosamine, reference compound]
- average cell proliferation number [1, 2]: 587 ± 134 cell/well
- average cell proliferation number [1, 3]: 766 ± 114 cell/well
- average cell proliferation number [1, 4]: 634 ± 65 cell/well
- average cell proliferation number [1, 5]: 689 ± 34 cell/well
- proliferation effect as compared with the control (p<0.05) ([1]; 24 hours, 1 μg/ml): significant proliferation stimulating effects
- proliferation effect as compared with the control (p<0.05) ([1]; 24 hours, 10 μg/ml): significant proliferation stimulating effects
- proliferation effect as compared with the control (p<0.05) ([1]; 24 hours, 100 μg/ml): significant proliferation stimulating effects
- average cell proliferation number [1, 6]: 1616 ± 244 cell/well
- average cell proliferation number [1, 7]: 2108 ± 344 cell/well
- average cell proliferation number [1, 8]: 1839 ± 160 cell/well
- average cell proliferation number [1, 9]: 1758 ± 424 cell/well
- proliferation effect as compared with the control (p<0.05) ([1]; 48 hours, 1 μg/ml): significant proliferation stimulating effect
- overall effect on cell proliferation ability as compared with the control [1]: significant effect of stimulating cell proliferation ability

Compound: CC(=O)N[C@H]1C(O)O[C@H](CO)[C@@H](O)[C@@H]1O (stereo partly drawn) [GlcNAc, N-Acetyl-D-Glucosamine]
- average cell proliferation number [1, 2]: 601 ± 39 cell/well
- average cell proliferation number [1, 3]: 774 ± 158 cell/well
- average cell proliferation number [1, 4]: 636 ± 51 cell/well
- average cell proliferation number [1, 5]: 628 ± 73 cell/well
- proliferation effect as compared with the control (p<0.05) ([1]; 24 hours, 1 μg/ml): significant proliferation stimulating effects
- proliferation effect as compared with the control (p<0.05) ([1]; 24 hours, 10 μg/ml): significant proliferation stimulating effects
- proliferation effect as compared with the control (p<0.05) ([1]; 24 hours, 100 μg/ml): significant proliferation stimulating effects
- average cell proliferation number [1, 6]: 1312 ± 169 cell/well
- average cell proliferation number [1, 7]: 2372 ± 415 cell/well
- average cell proliferation number [1, 8]: 2155 ± 175 cell/well
- average cell proliferation number [1, 9]: 2128 ± 165 cell/well
- proliferation effect as compared with the control (p<0.05) ([1]; 48 hours, 1 μg/ml): significant proliferation stimulating effects
- proliferation effect as compared with the control (p<0.05) ([1]; 48 hours, 10 μg/ml): significant proliferation stimulating effects
- proliferation effect as compared with the control (p<0.05) ([1]; 48 hours, 100 μg/ml): significant proliferation stimulating effects
- overall effect on cell proliferation ability as compared with the control [1]: significant effect of stimulating cell proliferation ability
- visual observation: epidermis / skin formation (skin deficient wound; [10]): complete cutization was recognized
- visual observation: excess granulation (skin deficient wound; [10]): excess granulation did not occur
- overall skin regenerating effect in a mouse (skin deficient wound; compared with physiological saline and chitin gel): more excellent than physiological saline and chitin gel
- histological observation: hypodermis (skin deficient wound; [11]): leaves a slight granulation tissue at the center portion
- histological observation: regeneration of skin / epidermis (skin deficient wound; [11]): skin regeneration is completed
